Assay results reported in patent US20160106719A1, “Transplantation Adjuvant in Cell Therapy Using Neural Progenitor Cells” (SUMITOMO DAINIPPON PHARMA CO., LTD., priority 2013, published 2016).

Test system: re-aggregated PSA-NCAM+ cells (neural progenitor cells derived from mouse iPS cell line 440A3)
Assay: In vitro differentiation of mouse iPS cell-derived neural progenitor cells into dopaminergic neurons (immunocytochemistry for marker molecules)
Format: cell-based
Conditions: for ratio of TH+ cells: day 10 to 14, control 5.2±1.1%
Experimental: DMEM contained 1% fetal bovine serum (FBS), 5% knockout serum replacement (KSR; manufactured by Invitrogen), 0.1 mM non-essential amino acids, 1 mM sodium pyruvate, 0.1 mM 2-mercaptoethanol (2-ME; manufactured by Invitrogen), 2000 U/ml leukemia inhibitory factor (manufactured by Invitrogen), and 1.5 μg/ml puromycin. In order to differentiate and induce the iPS cells into neural cells, serum-free floating culture of embryoid bodies-like aggregates (SFEB) was employed. Specifically, aggregates of the 440A3 cells were separated into individual cells by using 0.25% trypsin/1 mM EDTA (ethylenediaminetetraacetic acid), and the resultant cells were seeded in a 96-well low adhesion plate (product name: Lipidure-Coat Plate A-US96, manufactured by NOF Corporation) at a concentration (cell density) of 3000 cells/well. Thereafter, re-aggregation of the 440A3 cells was induced in a differentiation medium containing GMEM (Glasgow Minimum Essential Medium), 5% KSR, 0.1 mM non-essential amino acids, 1 mM sodium pyruvate and 0.1 mM 2-ME, and this day was defined as day 0 (FIG. 1). During this differentiation process, various factors were added to the differentiation medium for inducing midbrain dopaminergic phenotypes as illustrated in FIG. 1. Specifically, from day 3 to day 7 after starting the SFEB, 20 ng/ml of mouse FGF-8b (manufactured by R & D Systems) was added, from day 4 to day 7 after starting the SFEB, 10 ng/ml of recombinant mouse sonic hedgehog (C25I1) N-terminus (manufactured by R & D Systems) was added, and on and after day 7 after starting the SFEB, 1% N-2 supplement (manufactured by Gibco) and 200 nM ascorbic acid were added. The KSR was removed from the differentiation medium on day 7 after starting the SFEB.
On day 9 after starting the SFEB, the 440A3 cells were washed with phosphate buffered saline (PBS(-)) twice. Thereafter, the 440A3 cells were dissociated into single cells by five-minute incubation performed at 37° C. by using Accumax (manufactured by Innovate Cell Technologies, product name). The cells were collected with a FACS buffer. The FACS buffer was constituted by PBS(-) containing 2% FBS, 20 mM D-glucose and 1% penicillin/streptomycin (P/S, manufactured by Invitrogen). The collected cells were mechanically dissociated into a single cell suspension by a gentle pipetting operation.
Next, the resultant cells were incubated with a mouse anti-PSA-NCAM antibody (dilution rate of 1:200, manufactured by Millipore) at 4° C. for about 30 minutes. Thereafter, a washing operation using a centrifuge was performed twice, and the resultant cells were further incubated for 30 minutes with a secondary antibody of a donkey anti-mouse IgG (dilution rate of 1:400, manufactured by Invitrogen) labeled with AlexaFluor 594. Dead cells and cell debris were excluded by using 7-aminoactinomycin-D (7-AAD, manufactured by BD Pharmigen) stain. The remaining living cells were suspended again at a final concentration (cell density) of 1×10^7 cells/ml. Cell sorting was conducted by using a FACSAria II cell sorter (manufactured by Becton Dickinson And Company) equipped with a 488 nm argon laser, a 633 nm helium-neon laser, a 100 μm nozzle and a FACSDiva software program. A PSA-NCAM positive rate was determined on the basis of a negative control not using a primary antibody.
After the cell sorting, in order to induce the reaggregation of the cells, a PSA-NCAM^+ cell group was seeded in a DMEM/F12 medium (manufactured by Wako Pure Chemical Industries, Ltd.) in a 96-well plate at a concentration (cell density) of 20000 cells/well. The DMEM/F12 medium contained 1% N-2 supplement, 200 nM ascorbic acid, 2% B27 supplement (manufactured by Invitrogen), 0.5 mM L-glutamine and 1% P/S. In order to prevent apoptosis, a ROCK inhibitor, Y-27632 (manufactured by Wako Pure Chemical Industries, Ltd.), was used at a concentration of 30 μM during the cell sorting process and the following overnight cultivation. […]

Question: For `CCCC(CCC)C(=O)[O-].[Na+]` [VPA, sodium 2-propylpentanoate], which “ratio of TH+ cells” value (VPA 0.01 mM) is on record?
Answer: 12.1±1.5%

Question: What about the “ratio of TH+ FOXA2+ cells” value (VPA 0.1 mM, control 0.25±0.22%) of the same compound?
Answer: 1.00±0.58%

Question: And the “ratio of TH+ NURR1+ cells” value (VPA 0.1 mM, control 0.37±0.32%)?
Answer: 1.00±0.70%

Question: And the “ratio of TH+ cells” value (VPA 0.1 mM)?
Answer: 11.7±0.4%
